Data as given in ChEMBL document CHEMBL1857833, “Screening and optimization of specific chemical series against human African Trypanosomiasis (HAT)”.
In brackets after ≈: the same amount, converted by molar mass.

System: Trypanosoma brucei
Test: DNDI: Inhibition of Human African Trypanosomiasis, SBRI 427, in vitro
Type: functional, organism-based
Conditions: Trypanosoma brucei, SBRI 427; read-out: IC50

| SMILES | IC50 |
| --- | --- |
| O/N=C(\NCC1CCCCC1)c1ccc(Oc2ccc(Cl)cc2)nc1 | 1.6 µg/mL (≈ 4.45 µM) |
| O/N=C(\NCC1CCCCC1)c1ccnc(Oc2ccc(Cl)cc2)c1 | 3.98 µg/mL (≈ 11.1 µM) |
| CCC(CC)N/C(=N\O)c1ccc(Oc2cc(Cl)ccc2Cl)nc1 | 1.35 µg/mL (≈ 3.67 µM) |
| CC1(C)[C@H]2CC[C@@H](CNCc3coc(-c4ccc(F)cc4)n3)[C@@H]1C2 | > 5 µg/mL |
| CC1CCCCN1CCCNCc1coc(-c2cccc3ccccc23)n1 (stereo unspecified) | 2.07 µg/mL (≈ 5.69 µM) |
| CCN(CC)CCCNCc1coc(-c2cccc(C)c2)n1 | 3.36 µg/mL (≈ 11.1 µM) |
| COc1ccc(-c2nc(CNC3CCN(Cc4ccccc4)CC3)co2)cc1 | 2.92 µg/mL (≈ 7.74 µM) |
| Clc1ccc(-c2nc(CNCCCn3ccnc3)co2)c(Cl)c1 | 2.02 µg/mL (≈ 5.75 µM) |
| O/N=C(\NC1CCCC1)c1ccnc(Oc2cc(Cl)ccc2Cl)c1 | 10.8 µg/mL (≈ 29.6 µM) |
| O/N=C(\NC1CCC1)c1ccc(Oc2c(F)c(F)cc(F)c2F)nc1 | 2.58 µg/mL (≈ 7.26 µM) |
| CC1CCC(C)N1/C(=N\O)c1cccnc1OCC(C)(C)C (stereo unspecified) | 1.25 µg/mL (≈ 4.09 µM) |
| NCCc1cn(Cc2coc(-c3ccc(Cl)cc3Cl)n2)cn1 | 4.34 µg/mL (≈ 12.9 µM) |
| COc1cccc(Oc2ccc(/C(=N/O)NC3CCCCC3)cn2)c1 | 1.23 µg/mL (≈ 3.6 µM) |
| O/N=C(\NC1CCCC1)c1ccnc(Oc2ccc(F)c(F)c2)c1 | 2.94 µg/mL (≈ 8.82 µM) |
| C[C@@H]1C(NCc2coc(-c3cccc4ccccc34)n2)C[C@H]2C[C@@H]1C2(C)C (stereo partly specified) | 0.94 µg/mL (≈ 2.61 µM) |
| CSc1ccc(Oc2ccc(/C(=N/O)NC3CCC(C)CC3)cn2)cc1 (stereo unspecified) | 1.35 µg/mL (≈ 3.63 µM) |
| C[C@@H]1C(NCc2coc(-c3cccc(F)c3)n2)C[C@H]2C[C@@H]1C2(C)C (stereo partly specified) | 1.18 µg/mL (≈ 3.59 µM) |
| CC(C)COc1ncccc1/C(=N/O)NC1CCC(C)CC1 (stereo unspecified) | 2.25 µg/mL (≈ 7.37 µM) |
| CCC(CC)N/C(=N\O)c1ccc(Oc2ccc(Cl)cc2)nc1 | 1.63 µg/mL (≈ 4.88 µM) |
| Cc1cc(Oc2ccc(/C(=N/O)N3CCCC3C)cn2)cc(C(C)C)c1 (stereo unspecified) | > 5 µg/mL |
| CCOc1ccc(-c2nc(Cn3nc(N)cc3C)co2)cc1 | 2.11 µg/mL (≈ 7.07 µM) |
| C[C@H]1C(NCc2coc(-c3cccc4ccccc34)n2)C[C@@H]2C[C@H]1C2(C)C (stereo partly specified) | 0.9 µg/mL (≈ 2.5 µM) |
| O/N=C(/c1cccnc1Oc1cccc(C(F)(F)F)c1)N1CCN(C2CCCC2)CC1 | 2.33 µg/mL (≈ 5.36 µM) |
| CCCC(CCC)NCc1coc(-c2ccccc2OCC)n1 | 1.76 µg/mL (≈ 5.56 µM) |

Next, values leading:

| IC50 | SMILES |
| --- | --- |
| 3.57 µg/mL (≈ 9.88 µM) | Cc1ccccc1CN/C(=N\O)c1cccnc1Oc1cccc(C)c1C |
| 0.41 µg/mL (≈ 1.19 µM) | CCC(CC)N/C(=N\O)c1cccnc1Oc1ccccc1SC |
| 4.81 µg/mL (≈ 14.2 µM) | CSCCN/C(=N\O)c1cccnc1Oc1c(F)cccc1F |
| 1.6 µg/mL (≈ 4.17 µM) | CSc1ccc(Oc2ccc(/C(=N/O)NCc3ccccc3F)cn2)cc1 |
| 0.37 µg/mL (≈ 0.985 µM) | Cc1ccc(/C(=N/O)NC2CCCCC2)c(Oc2ccc3ccccc3c2)n1 |
| 18.2 µg/mL (≈ 57.8 µM) | O/N=C(\NC1CCCC1)c1cccnc1Oc1ccccc1F |
| 1.7 µg/mL (≈ 4.46 µM) | O/N=C(\NC1CCc2ccccc21)c1cccnc1Oc1c(F)cccc1F (stereo unspecified) |
| 2.17 µg/mL (≈ 6.59 µM) | CCc1ccc(Oc2ncccc2/C(=N/O)NC(C)COC)cc1 (stereo unspecified) |
| 1.93 µg/mL (≈ 5.62 µM) | O/N=C(\NCc1cccs1)c1ccc(Oc2cccc(F)c2)nc1 |
| 2.79 µg/mL (≈ 7.41 µM) | Cc1cc(C)cc(CN/C(=N\O)c2ccc(C)nc2OCc2ccccn2)c1 |
| 4.78 µg/mL (≈ 15.3 µM) | COc1ccc(Oc2cc(/C(=N/O)NC3CCC3)ccn2)cc1 |
| 1.77 µg/mL (≈ 5.09 µM) | Cc1ccc(/C(=N/O)NC2CC(C)CC(C)(C)C2)c(OCC(C)C)n1 (stereo unspecified) |
| 2.52 µg/mL (≈ 5.75 µM) | Cc1ccc(/C(=N/O)NCc2cc(F)cc(F)c2)c(Oc2cc(Cl)ccc2Cl)n1 |
| 3.35 µg/mL (≈ 8.76 µM) | CCC(CC)N/C(=N\O)c1ccc(C)nc1Oc1cc(Cl)ccc1Cl |
| 2.45 µg/mL (≈ 5.9 µM) | O/N=C(\NCc1cccs1)c1cccnc1Oc1ccc2oc3ccccc3c2c1 |
| 1.06 µg/mL (≈ 2.84 µM) | O/N=C(\NC1CCC1)c1ccc(Oc2ccc3oc4ccccc4c3c2)nc1 |

| IC50 | SMILES |
| --- | --- |
| 2.32 µg/mL (≈ 6.15 µM) | COc1ccc(Oc2ncccc2/C(=N/O)NCc2cc(C)cc(C)c2)cc1 |
| 1.94 µg/mL (≈ 5.92 µM) | Cc1cc(C)cc(CN/C(=N\O)c2cccnc2OCC(C)C)c1 |
| > 5 µg/mL | Cc1ccc(-c2nc(CN(Cc3ccccn3)Cc3ccccn3)co2)cc1 |
| 1.67 µg/mL (≈ 4.26 µM) | Cc1ccc(CN/C(=N\O)c2cccnc2Oc2cc(Cl)ccc2Cl)o1 |
| 1.51 µg/mL (≈ 4.02 µM) | COc1ccc(Oc2ncccc2/C(=N/O)NC2CCc3ccccc32)cc1 (stereo unspecified) |
| 2.32 µg/mL (≈ 6.68 µM) | CC1CCCN1/C(=N\O)c1ccc(Oc2ccc3ccccc3c2)nc1 (stereo unspecified) |
| 1.61 µg/mL (≈ 4.92 µM) | CCC(CC)N/C(=N\O)c1ccc(Oc2cc(C)cc(C)c2)nc1 |
| 0.32 µg/mL (≈ 0.977 µM) | Cc1cccc(Oc2nc(C)ccc2/C(=N/O)NCC(C)(C)C)c1 |
| 4.25 µg/mL (≈ 14.8 µM) | O/N=C(\NC1CC1)c1cccnc1Oc1ccccc1F |
| > 5 µg/mL | O/N=C(\NC1CCC1)c1ccc(Oc2ccc3ccccc3c2)nc1 |
| 2.37 µg/mL (≈ 6.25 µM) | COc1ccc(Oc2ncccc2/C(=N/O)NCc2ccccc2OC)cc1 |
| > 5 µg/mL | O/N=C(\NC1CCCCC1)c1ccc(Oc2ccc3ccccc3c2)nc1 |
| 2.13 µg/mL (≈ 5.35 µM) | CCOc1ccccc1CN/C(=N\O)c1cccnc1Oc1ccc(Cl)cc1 |
| 2.54 µg/mL (≈ 6.73 µM) | Cc1ccc(/C(=N/O)N2CCCc3ccccc32)c(Oc2cccc(F)c2)n1 |
| 0.39 µg/mL (≈ 1.01 µM) | Cc1ccc(/C(=N/O)NC2CCC2)c(Oc2ccc3oc4ccccc4c3c2)n1 |
| 1.26 µg/mL (≈ 3.95 µM) | O/N=C(\Nc1ccccc1)c1cccnc1OCc1ccccc1 |
